This note sets out measurements from patent US20080233562A1, “Method of Estimating Antitumor Effect of Histone Deacetylase Inhibitor” (Astellas Pharma Inc., priority 2003, published 2008).

Series [1] concerns human prostate cancer PC-3. Description: Antitumor effect on human prostate cancer PC-3 tumor fragment implanted s.c. in nude mice. It is filed as in vivo.
Description: A necessary amount of FK228 was weighed and a solvent (10% HCO-60/saline) was added. The mixture was sonicated to allow for dissolution. A positive control substance Paclitaxel was dissolved in Cremophor EL/ethanol (1:1) solution to 24 mg/mL prior to the testing, and preserved in a refrigerator. When in use, it was diluted with a 9-fold amount of physiological saline to 2.4 mg/mL (solvent component: 5% Cremophor EL-5% ethanol-90% saline).
(§3) For antitumor test of the pharmaceutical agent, BALB/cANnNCrj-nu/nu mice (male, 6-week-old) were purchased from Charles River Japan and, after acclimation for not less than one week, used for the test. The mice were reared under an SPF environment and allowed a free access to water and feed.
A grown solid tumor was subcultured for not less than 3 generations and used for the test.
(§4) A solid tumor subcultured in a nude mouse was subcutaneously implanted in the right back of a mouse as an about 3 mm square tumor tissue fragment. […]
(§5) The administration was started on the day of grouping (Day 0). […] The amount of liquid for each administration was calculated (0.1 mL/10 g body weight) based on the body weight measured on the administration day.
(§6) The tumor size (longer diameter, shorter diameter) and body weight were measured twice a week from Day 0.
(§7) The level of tumor growth was evaluated based on the tumor growth rate (Relative Tumor Volume). […]
Another series relates to human kidney cancer ACHN. Description: Antitumor effect on human kidney cancer ACHN tumor fragment implanted s.c. in nude mice. It is filed as in vivo.
Series [2] concerns human stomach cancer SC-6. Description: Antitumor effect on human stomach cancer SC-6 tumor fragment implanted s.c. in nude mice. Particulars: SC-6 s.c. in nude mice, 3.2 mg/kg i.v. It is filed as in vivo. The text has this: (§1) A solid tumor subcultured in a nude mouse was subcutaneously implanted in the right back of a mouse as an about 3 mm square tumor tissue fragment. After the tumor implantation, when the tumor volume (½×longer diameter×shorter diameter^2) reached 100-300 mm^3, the mice were grouped into 6 mice per group to level the tumor size.
human gastric cancer SC-6; obtained from Central Institute for Experimental Animals (tumor fragment 3 mm×3 mm×3 mm/mouse implantation site s.c.)
(§2) By the method shown in Example 1, 3 mm square tumor fragments (human prostate cancer PC-3, human stomach cancer SC-6, human kidney cancer ACHN and human kidney cancer A498) were subcutaneously implanted in nude mice, and when the tumor volume (long diameter 9 mm, short diameter 8 mm) reached about 100-300 mm^3, FK228 (3.2 mg/kg) was intravenously administered. The tumor growth suppressing rates then were 98%, 84%, 20% and 29%, respectively.

Another series relates to human kidney cancer A498. Description: Antitumor effect on human kidney cancer A498 tumor fragment implanted s.c. in nude mice. It is filed as in vivo. Particulars: 3.2 mg/kg i.v.
Description: as §1
human kidney cancer A498; obtained from ATCC (tumor fragment 3 mm×3 mm×3 mm/mouse implantation site s.c.)
as §2

The nature of series [3]: Maximum tolerated dose, intravenous administration to nude mice. Particulars: mouse, in vivo, i.v. Here is the method:
The administration was started on the day of grouping (Day 0). FK228 was intravenously administered to an FK228 administration group 3 times every 4 days (q4d×3) (3.2 and 1.8 mg/kg). Paclitaxel (24 mg/kg) was intravenously administered for 5 consecutive days (qd×5) to a positive control substance Paclitaxel administration group. Only a solvent (10% HCO-60/saline) was administered (q4d×3) to a control group. The amount of liquid for each administration was calculated (0.1 mL/10 g body weight) based on the body weight measured on the administration day. Note that 3.2 mg/kg/day (q4d×3) of FK228 and 24 mg/kg/day (qd×5) of Paclitaxel were the maximum tolerated doses (MTD) thereof.

Description for human kidney cancer ACHN: A necessary amount of FK228 was weighed and a solvent (10% HCO-60/saline) was added. The mixture was sonicated to allow for dissolution.
as §3
Cultured human kidney cancer cell line 1 (ACHN: available from ATCC) and human culture prostate cancer cell line 1 (PC-3: available from ATCC) were subcutaneously implanted at 2-3×10^7 cells in a nude mouse. A grown solid tumor was subcultured for not less than 3 generations and used for the test.
as §4, §5, §6, §7

The term MTD denotes the highest dose tested that stayed within the study's limit of toxicity. A low value points to poorer tolerability. For `C/C=C1\NC(=O)[C@H]2CSSCC/C=C/[C@H](CC(=O)N[C@H](C(C)C)C(=O)N2)OC(=O)[C@H](C(C)C)NC1=O` [FK228], the “antitumor action (tumor growth rate, Relative Tumor Volume)” value is listed as “strong antitumor action” in series [1] (PC-3 in nude mice, FK228 3.2 mg/kg i.v. q4d×3, FIG. 1(a)) and “did not show an antitumor action” in the series on human kidney cancer ACHN (ACHN in nude mice, FK228 i.v. q4d×3, FIG. 1(b)). In addition, the “tumor growth suppressing rate” value in series [1] (PC-3 s.c. in nude mice, 3.2 mg/kg i.v.) worked out at 98%; in the series on human kidney cancer ACHN (ACHN s.c. in nude mice, 3.2 mg/kg i.v.), 20%; in series [2] it was 84%; with human kidney cancer A498, 29%. The compound further gave an MTD in series [3] (q4d×3, nude mice) of 3.2 mg/kg/day.
On to `CC(=O)O[C@H]1C(=O)[C@@]2(C)[C@H]([C@H](OC(=O)c3ccccc3)[C@]3(O)C[C@H](OC(=O)[C@H](O)[C@@H](NC(=O)c4ccccc4)c4ccccc4)C(C)=C1C3(C)C)[C@]1(OC(C)=O)CO[C@@H]1C[C@@H]2O` [Paclitaxel, reference compound], for which the MTD at 5 days in series [3] (24 mg/kg, qd×5, nude mice) turned out to be 24 mg/kg/day.
